Test results: patent US11965039B2, “Compstatin analogues and their medical uses” (priority 2018, dated 2024)
Starred links: 1 amine or outer side, 2 acyl side, 3 side chain; linkers in the order of their positions; H or OH if unused. Positions of bridges follow the written chain, without caps; N, C: chain ends. Non-standard residues stand in square brackets, D forms with d. Residues, ends and D or L forms follow the SMILES beside them. Groups on a side chain read outwards from the residue. *: point of attachment. Trp(1-Me) = Cn1cc(C[C@H](N)C(=O)O)c2ccccc21; C18 diacid = O=C(O)CCCCCCCCCCCCCCCCC(=O)*; C16 diacid = O=C(O)CCCCCCCCCCCCCCC(=O)*; γGlu = O=C(O)[C@H](CCC(=O)[*:2])N[*:1]; AEEA = NCCOCCOCC(=O)O; Sar = CNCC(=O)O

What was measured:
[1] = test system: classical complement pathway; test: In vitro haemolysis assay (inhibition of classical complement pathway); type: cell-based, human; conditions: human serum, sensitized sheep red blood cells; Table 3, given as upper bounds; read-out: IC50, inhibition of hemolysis
Outline: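 Compound dilutions preincubated 15 min at room temperature with diluted human serum (titrated per batch for 70-90% maximal haemolysis), then antibody-sensitized sheep RBC (10^7/well) added for 30 min at 37 °C in Tris/casein buffer, pH 7.4. Stopped with EDTA; haemolysis read at 405 nm; IC50 by 4PL fit.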

[2] = test system: alternative complement pathway; test: Ex vivo alternative pathway complement activity (WIESLAB kit) after s.c. dosing in non-human primates; set-up: species or system Cynomolgus monkeys (Macaca fascicularis); conditions: NHP, subcutaneous 1840 nmol/kg, FIG. 1a-f
Description: FIG. 1(a-f): Normalized “ex vivo” activity of the alternative complement pathway over time after administration of a test compound at time 0 to one or two non-human primates. Compounds were given subcutaneously at a dose of 1840 nmol/kg. Complement activity (alternative pathway) was measured using the Wieslab kit. Activity was normalized using the predose (0) sample (set to 100%) and the negative control included in the kit. Normalized activity or average normalized activity for both animals and standard deviation is shown.
(§1) Healthy male Cynomolgus monkeys (Macaca fascicularis) received single subcutaneous administrations of each test substance. Compounds were formulated in 20 mM phosphate adjusted with NaOH to pH 7.5 and mannitol for isotonicity and dosed at 1840 nmol/kg. Blood was collected from a femoral vein from each animal at the following times: Pre-dose, 1, 2, 4, 8, 24, 48, 72, 96 and 120 h (10 sampling times). Blood was collected into serum separation tubes and allowed to clot at room temperature. The tubes were centrifuged and resulting serum was aliquoted and snap-frozen over dry-ice and stored at nominally −80° C. until analysis. All NHP studies were performed in accordance with animal welfare laws and regulations, including approval of the study by a local ethical review process.
Serum isolated from non-human primates at specific time points after dosing were analyzed for alternative pathway complement activity using the Complement system Alternative Pathway WIESLAB® kit from Svar Life Science (previously Euro diagnostic AB, Sweden) following the manufacturer's protocol. Briefly, serum samples or controls were diluted in buffer and incubated in microtitre strips coated with specific activators of the alternative pathway. The wells were washed and formed C5b-9 was detected using included colorimetric reagents. Absorbance at 405 nm was measured. The percent activity of the alternative complement pathway was calculated for each animal and timepoint relative to the pre-dose activity (0 hours) of the individual animal with subtraction of the negative control. […]

[3] = Solubility test at 10 mg/mL (visual inspection and light scattering); type: physicochemical; conditions: for Solubility, Condition 1: Acetate pH 4; for Solubility, Condition 2: Acetate pH 5; for Solubility, Condition 3: Phosphate pH 6; for Solubility, Condition 4: Phosphate pH 7; for Solubility, Condition 5: Phosphate pH 7.5
[4] = Pharmacokinetic half-life in non-human primates (serum, LC-MS/MS); type: in vivo, Cynomolgus monkeys (Macaca fascicularis); conditions: male, cynomolgus monkey, sc, NHP, single subcutaneous dose 1840 nmol/kg, * = approximate determination
Description: as §1
In order to assess pharmacokinetic half-life (t ½), serum samples isolated from non-human primates at specific time points after dosing were analysed for total drug compound after sample preparation by solid phase extraction (SPE) and liquid chromatography mass spectrometry (LC-MS/MS) using analogue internal standard. Single measurement of serum concentrations were used for calculation of the pharmacokinetic parameters using the non-compartmental approach in Phoenix WinNonlin 6.3. Plasma terminal elimination half-life (t½) was determined as In(2)/λz where λz is the magnitude of the slope of the log linear regression of the log concentration versus time profile during the terminal phase.

Row | Structure (SMILES) | IC50 [1] | duration of action (alternative pathway complement activity) [2] | Solubility, Condition 1 [3] | Solubility, Condition 2 [3] | Solubility, Condition 3 [3] | Solubility, Condition 4 [3] | Solubility, Condition 5 [3] | half-life [4]
1 | CC[C@H](C)[C@@H]1NC(=O)[C@@H](NC(=O)[C@H](Cc2ccc(O)cc2)NC(=O)[C@H](C)NC(=O)[C@H](CO)NC(=O)CNC(=O)[C@H](CCC(=O)O)NC(C)=O)CSSC[C@@H](C(=O)N(C)CC(=O)N[C@@H](CCC(=O)O)C(N)=O)NC(=O)[C@H](CCCNC(=N)N)NC(=O)[C@H](Cc2c[nH]cn2)NC(=O)[C@H](CCC(=O)O)NC(=O)CNC(=O)[C@H](Cc2c[nH]c3ccccc23)NC(=O)[C@H](CC(=O)O)NC(=O)[C@H](CCC(N)=O)NC(=O)[C@H](Cc2cn(C)c3ccccc23)NC1=O [Compound 54] (Ac-EGSAYCI[Trp(1-Me)]QDWGEHRC[Sar]E-NH2; disulfide 6-16) | < 100 nM | relatively short duration of action | − (“−” denotes lack of solubility at the given condition, as UV absorbance at 340 nm exceeds 0.1 AU and/or it is visibly turbid or contains particles) | − (“−” denotes lack of solubility at the given condition, as UV absorbance at 340 nm exceeds 0.1 AU and/or it is visibly turbid or contains particles) | + (“+” denotes solubility at the given condition, as determined by UV absorbance being less than 0.1 AU at 340 nm and the sample being clear when manually inspected) | + (“+” denotes solubility at the given condition, as determined by UV absorbance being less than 0.1 AU at 340 nm and the sample being clear when manually inspected) | + (“+” denotes solubility at the given condition, as determined by UV absorbance being less than 0.1 AU at 340 nm and the sample being clear when manually inspected) | 
2 | CC[C@H](C)[C@@H]1NC(=O)[C@@H](NC(=O)[C@H](Cc2ccc(O)cc2)NC(=O)[C@H](C)NC(=O)[C@H](CO)NC(=O)CNC(=O)[C@H](CCC(=O)O)NC(C)=O)CSSC[C@@H](C(=O)N(C)CC(=O)N[C@@H](CCC(=O)O)C(=O)NCC(=O)N[C@@H](CCCCNC(=O)COCCOCCNC(=O)COCCOCCNC(=O)CC[C@H](NC(=O)CCCCCCCCCCCCCCC(=O)O)C(=O)O)C(N)=O)NC(=O)[C@H](CCCNC(=N)N)NC(=O)[C@H](Cc2c[nH]cn2)NC(=O)[C@H](CCC(=O)O)NC(=O)CNC(=O)[C@H](Cc2c[nH]c3ccccc23)NC(=O)[C@H](CC(=O)O)NC(=O)[C@H](CCC(N)=O)NC(=O)[C@H](Cc2cn(C)c3ccccc23)NC1=O [Compound 104] (Ac-EGSAYCI[Trp(1-Me)]QDWGEHRC[Sar]EGK([AEEA-AEEA-γGlu-C16 diacid])-NH2; disulfide 6-16) | < 100 nM |  | − (“−” denotes lack of solubility at the given condition, as UV absorbance at 340 nm exceeds 0.1 AU and/or it is visibly turbid or contains particles) | + (“+” denotes solubility at the given condition, as determined by UV absorbance being less than 0.1 AU at 340 nm and the sample being clear when manually inspected) | + (“+” denotes solubility at the given condition, as determined by UV absorbance being less than 0.1 AU at 340 nm and the sample being clear when manually inspected) | + (“+” denotes solubility at the given condition, as determined by UV absorbance being less than 0.1 AU at 340 nm and the sample being clear when manually inspected) | + (“+” denotes solubility at the given condition, as determined by UV absorbance being less than 0.1 AU at 340 nm and the sample being clear when manually inspected) | ~96.3 h
3 | CC[C@H](C)[C@@H]1NC(=O)[C@@H](NC(=O)[C@H](Cc2ccc(O)cc2)NC(=O)[C@H](C)NC(=O)[C@H](CO)NC(=O)CNC(=O)[C@H](CCC(=O)O)NC(C)=O)CSSC[C@@H](C(=O)N(C)CC(=O)N[C@@H](CCC(=O)O)C(=O)N[C@@H](CCCCN)C(=O)N[C@@H](CCC(=O)N[C@@H](CCCCNC(=O)COCCOCCNC(=O)COCCOCCNC(=O)CC[C@H](NC(=O)CCCCCCCCCCCCCCCCC(=O)O)C(=O)O)C(N)=O)C(=O)O)NC(=O)[C@H](CCCNC(=N)N)NC(=O)[C@H](Cc2c[nH]cn2)NC(=O)[C@H](CCC(=O)O)NC(=O)CNC(=O)[C@H](Cc2c[nH]c3ccccc23)NC(=O)[C@H](CC(=O)O)NC(=O)[C@H](CCC(N)=O)NC(=O)[C@H](Cc2cn(C)c3ccccc23)NC1=O [Compound 111] (Ac-EGSAYCI[Trp(1-Me)]QDWGEHRC[Sar]EK[γGlu]K([AEEA-AEEA-γGlu-C18 diacid])-NH2; disulfide 6-16) | < 100 nM |  | − (“−” denotes lack of solubility at the given condition, as UV absorbance at 340 nm exceeds 0.1 AU and/or it is visibly turbid or contains particles) | − (“−” denotes lack of solubility at the given condition, as UV absorbance at 340 nm exceeds 0.1 AU and/or it is visibly turbid or contains particles) | + (“+” denotes solubility at the given condition, as determined by UV absorbance being less than 0.1 AU at 340 nm and the sample being clear when manually inspected) | + (“+” denotes solubility at the given condition, as determined by UV absorbance being less than 0.1 AU at 340 nm and the sample being clear when manually inspected) | + (“+” denotes solubility at the given condition, as determined by UV absorbance being less than 0.1 AU at 340 nm and the sample being clear when manually inspected) | ~157 h
4 | CC[C@H](C)[C@@H]1NC(=O)[C@@H](NC(=O)[C@H](Cc2ccc(O)cc2)NC(=O)[C@H](CCC(=O)O)NC(=O)[C@H](CO)NC(C)=O)CSSC[C@@H](C(=O)N(C)CC(=O)N[C@@H](CCC(=O)O)C(=O)NCC(=O)N[C@@H](C)C(=O)N[C@@H](CCCCNC(=O)COCCOCCNC(=O)CC[C@H](NC(=O)COCCOCCNC(=O)CNC(=O)CC[C@H](NC(=O)CCCCCCCCCCCCCCCCC(=O)O)C(=O)O)C(=O)O)C(N)=O)NC(=O)[C@H](CCCNC(=N)N)NC(=O)[C@H](Cc2c[nH]cn2)NC(=O)[C@H](CCC(=O)O)NC(=O)CNC(=O)[C@H](Cc2c[nH]c3ccccc23)NC(=O)[C@H](CC(=O)O)NC(=O)[C@H](CCC(N)=O)NC(=O)[C@H](Cc2cn(C)c3ccccc23)NC1=O [Compound 118] (Ac-SEYCI[Trp(1-Me)]QDWGEHRC[Sar]EGAK([AEEA-γGlu-AEEA-Gly-γGlu-C18 diacid])-NH2; disulfide 4-14) | < 100 nM |  | − (“−” denotes lack of solubility at the given condition, as UV absorbance at 340 nm exceeds 0.1 AU and/or it is visibly turbid or contains particles) | + (“+” denotes solubility at the given condition, as determined by UV absorbance being less than 0.1 AU at 340 nm and the sample being clear when manually inspected) | + (“+” denotes solubility at the given condition, as determined by UV absorbance being less than 0.1 AU at 340 nm and the sample being clear when manually inspected) | + (“+” denotes solubility at the given condition, as determined by UV absorbance being less than 0.1 AU at 340 nm and the sample being clear when manually inspected) | + (“+” denotes solubility at the given condition, as determined by UV absorbance being less than 0.1 AU at 340 nm and the sample being clear when manually inspected) | ~78.7 h
5 | CC[C@H](C)[C@H](NC(=O)[C@H](N)Cc1ccc(O)cc1)C(=O)N[C@H]1CSSC[C@@H](C(=O)N(C)[C@H](C(N)=O)[C@@H](C)CC)NC(=O)[C@H](CCCNC(=N)N)NC(=O)[C@H](Cc2c[nH]cn2)NC(=O)[C@H](C)NC(=O)CN(C)C(=O)[C@H](Cc2c[nH]c3ccccc23)NC(=O)[C@H](CC(=O)O)NC(=O)[C@H](CCC(N)=O)NC(=O)[C@H](Cc2cn(C)c3ccccc23)NC(=O)[C@H](C(C)C)NC1=O [Cp40, H-{d}YIC(1)V[1-Me-Trp]QDW[Sar]AHRC(1)[N-Me-Ile]-NH2, reference compound] | < 100 nM | relatively short duration of action |  |  |  |  |  | 
